Measured values from patent publication US8772499B2, “TRPV3 modulators” (AbbVie Inc., priority 2011, dated 2014).
Read-outs that look alike come from different tables or passages of the source.

How the values were obtained:
human TRPV3 = target: T1, human TRPV3 (Homo sapiens, UniProt Q8NET8); test: In vitro antagonism of recombinant human TRPV3 activation (FLIPR Tetra calcium assay); type: cell-based; conditions: HEK293 cells stably expressing human TRPV3, agonist 2-APB at 80 μM
T1 construct: expressed in transfected cells
T1 sequence (Q8NET8 1-790): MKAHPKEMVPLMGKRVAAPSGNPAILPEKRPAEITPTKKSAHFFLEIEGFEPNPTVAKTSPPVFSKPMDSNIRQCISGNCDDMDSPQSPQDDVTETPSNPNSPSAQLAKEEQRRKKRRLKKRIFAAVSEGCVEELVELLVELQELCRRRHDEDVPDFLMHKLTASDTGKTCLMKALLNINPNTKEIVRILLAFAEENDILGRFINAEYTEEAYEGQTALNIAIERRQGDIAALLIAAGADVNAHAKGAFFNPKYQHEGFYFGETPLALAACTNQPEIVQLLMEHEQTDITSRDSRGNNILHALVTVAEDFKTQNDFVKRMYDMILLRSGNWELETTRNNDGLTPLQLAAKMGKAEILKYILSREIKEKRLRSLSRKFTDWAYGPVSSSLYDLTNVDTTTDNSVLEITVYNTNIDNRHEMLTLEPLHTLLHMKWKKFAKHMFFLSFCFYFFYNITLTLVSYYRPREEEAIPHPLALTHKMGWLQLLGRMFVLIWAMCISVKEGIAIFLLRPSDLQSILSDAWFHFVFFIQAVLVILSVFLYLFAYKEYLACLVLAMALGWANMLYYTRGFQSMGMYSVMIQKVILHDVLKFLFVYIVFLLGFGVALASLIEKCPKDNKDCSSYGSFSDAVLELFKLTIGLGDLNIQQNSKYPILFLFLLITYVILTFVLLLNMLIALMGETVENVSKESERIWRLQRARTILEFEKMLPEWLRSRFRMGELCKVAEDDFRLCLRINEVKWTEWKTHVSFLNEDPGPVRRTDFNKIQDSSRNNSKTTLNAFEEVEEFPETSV
Method in brief: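 HEK293 cells stably expressing human TRPV3, loaded with Calcium-4 dye for 90–120 min, received compound in DPBS, then 80 μM 2-APB (EC80) 3 min later. Max-minus-min fluorescence expressed as % of 2-APB response without antagonist; IC50 values mostly averages of n≥2 runs.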

[1] = In vitro human microsomal stability assay; type: in vitro ADME; conditions: human, microsomes, 0.5 h, 0.5 μM, pH 7.4
Method in brief: (§1)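 Test compounds were incubated at 37° C. with Sprague-Dawley rat liver microsomes or with human liver microsomes. NADPH was supplied as cofactor and was also added to the time-zero plates.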

[2] = In vitro rat microsomal stability assay; type: in vitro ADME, rat (Sprague-Dawley); conditions: Sprague-Dawley, rat, microsomes, 0.5 h, 0.5 μM, pH 7.4
Method in brief: as §1

[3] = actual measured value shown parenthetically, in most cases average of at least two runs, read-out: IC50
[4] = reported range, read-out: IC50 (range class)

Row | IC50 (human TRPV3; [3]) | IC50 (human TRPV3; [4]) | HUMAN MICROSOMAL STABILITY (% REMAINING AFTER 30 MINUTES) [1] | RAT MICROSOMAL STABILITY (% REMAINING AFTER 30 MINUTES) [2] | Structure (SMILES)
1 | > 20000 nM | > 20000 nM | 81% | >85% | OC1CC(c2ccc(Cl)c(Cl)c2)(C(O)c2ncccn2)C1 (single isomer, unassigned) [Example 313]
2 | 4700 nM | – | 20% | 17% | OC(c1ccccn1)C1(c2ccc(Oc3ccccc3)cc2)CCC1 (stereo not shown) [Example 24, [1-(4-phenoxyphenyl)cyclobutyl](pyridin-2-yl)methanol]
3 | 1180 nM | – | 21% | 1.3% | OC(c1ccccn1)C1(c2ccc(Cc3ccccc3)cc2)CCC1 (stereo not shown) [Example 25, [1-(4-benzylphenyl)cyclobutyl](pyridin-2-yl)methanol]
4 | 310 nM | – | 6.3% | 1.0% | O[C@H](c1ccccn1)C1(c2ccc(Cl)c(Cl)c2)CCC1 [Example 26, (S)-[1-(3,4-dichlorophenyl)cyclobutyl](pyridin-2-yl)methanol]
5 | 1400 nM | – | 13% | 15% | O[C@H](c1ccccn1)C1(c2ccc(C(F)(F)F)cc2F)CCC1 [Example 27, (S)-{1-[2-fluoro-4-(trifluoromethyl)phenyl]cyclobutyl}(pyridin-2-yl)-methanol]
6 | 440 nM | – | 12% | 13% | O[C@H](c1ccccn1)C1(c2ccc(C(F)(F)F)cc2)CCC1 [Example 28, (S)-pyridin-2-yl{1-[4-(trifluoromethyl)phenyl]cyclobutyl}methanol]
7 | 2540 nM | – | 5.3% | 45% | O[C@H](c1ccccn1)C1(c2ccc(C(F)(F)F)c(F)c2)CCC1 [Example 29, (S)-{1-[3-fluoro-4-(trifluoromethyl)phenyl]cyclobutyl}(pyridin-2-yl)-methanol]
8 | 1720 nM | – | 1.5% | 0.98% | Cc1cccnc1[C@@H](O)C1(c2ccc(Cl)c(Cl)c2)CCC1 [Example 30, (S)-[1-(3,4-dichlorophenyl)cyclobutyl] (3-methylpyridin-2-yl)methanol]
9 | 740 nM | – | 51% | 11% | O[C@H](c1ncccn1)C1(c2ccc(Cl)c(Cl)c2)CCC1 [Example 39, (S)-[1-(3,4-dichlorophenyl)cyclobutyl](pyrimidin-2-yl)methanol]
10 | 13300 nM | – | 68% | 5.6% | O[C@@H](c1ncccn1)C1(c2ccc(Cl)c(Cl)c2)CCC1 [Example 40, (R)-[1-(3,4-dichlorophenyl)cyclobutyl](pyrimidin-2-yl)methanol]

Second part, the compound before the results:

Row | Structure (SMILES) | IC50 (human TRPV3; [3]) | IC50 (human TRPV3; [4]) | HUMAN MICROSOMAL STABILITY (% REMAINING AFTER 30 MINUTES) [1] | RAT MICROSOMAL STABILITY (% REMAINING AFTER 30 MINUTES) [2]
11 | OC(c1ccccn1)C1(c2ccccc2F)CCC1 (stereo not shown) [Example 1, [1-(2-fluorophenyl)cyclobutyl](pyridin-2-yl)methanol] | 1500 nM | – | 0.38% | 0.48%
12 | OC(c1ccccn1)C1(c2cccc(F)c2)CCC1 (stereo not shown) [Example 2, [1-(3-fluorophenyl)cyclobutyl](pyridin-2-yl)methanol] | 320 nM | – | 17% | 0.64%
13 | OC(c1ccccn1)C1(c2ccc(F)cc2)CCC1 (stereo not shown) [Example 3, [1-(4-fluorophenyl)cyclobutyl](pyridin-2-yl)methanol] | 790 nM | – | 28% | 3.8%
14 | OC(c1ccccn1)C1(c2ccc(F)c(F)c2)CCC1 (stereo not shown) [Example 4, [1-(3,4-difluorophenyl)cyclobutyl](pyridin-2-yl)methanol] | 460 nM | – | 19% | 4.2%
15 | OC(c1ccccn1)C1(c2ccccc2C(F)(F)F)CCC1 (stereo not shown) [Example 5, pyridin-2-yl{1-[2-(trifluoromethyl)phenyl]cyclobutyl}methanol] | 5220 nM | – | 0.27% | 0.06%
16 | OC(c1ccccn1)C1(c2cccc(C(F)(F)F)c2)CCC1 (stereo not shown) [Example 6, pyridin-2-yl{1-[3-(trifluoromethyl)phenyl]cyclobutyl}methanol] | 350 nM | – | 1.2% | 2.3%
17 | Cc1ccccc1C1(C(O)c2ccccn2)CCC1 (stereo not shown) [Example 7, [1-(2-methylphenyl)cyclobutyl](pyridin-2-yl)methanol] | 17500 nM | – | 0.15% | 0.32%
18 | Cc1cccc(C2(C(O)c3ccccn3)CCC2)c1 (stereo not shown) [Example 8, [1-(3-methylphenyl)cyclobutyl](pyridin-2-yl)methanol] | 380 nM | – | 0.13% | 0.73%
19 | Cc1ccc(C2(C(O)c3ccccn3)CCC2)cc1 (stereo not shown) [Example 9, [1-(4-methylphenyl)cyclobutyl](pyridin-2-yl)methanol] | 1510 nM | – | 0.12% | 0.18%
20 | OC(c1ccccn1)C1(c2ccccc2OC(F)(F)F)CCC1 (stereo not shown) [Example 10, pyridin-2-yl{1-[2-(trifluoromethoxy)phenyl]cyclobutyl}methanol] | 1100 nM | – | 0.42% | 0.62%
21 | OC(c1ccccn1)C1(c2cccc(OC(F)(F)F)c2)CCC1 (stereo not shown) [Example 11, pyridin-2-yl{1-[3-(trifluoromethoxy)phenyl]cyclobutyl}methanol] | 400 nM | – | 0.72% | 0.80%
22 | OC(c1ccccn1)C1(c2ccc(OC(F)(F)F)cc2)CCC1 (stereo not shown) [Example 12, pyridin-2-yl{1-[4-(trifluoromethoxy)phenyl]cyclobutyl}methanol] | 420 nM | – | 24% | 11%
23 | OC(c1ccccn1)C1(c2cc(C(F)(F)F)cc(C(F)(F)F)c2)CCC1 (stereo not shown) [Example 13, {1-[3,5-bis(trifluoromethyl)phenyl]cyclobutyl}(pyridin-2-yl)methanol] | 600 nM | – | 7.4% | 19%
24 | OC(c1ccccn1)C1(c2ccc(F)c(C(F)(F)F)c2)CCC1 (stereo not shown) [Example 15, {1-[4-fluoro-3-(trifluoromethyl)phenyl]cyclobutyl}(pyridin-2-yl)methanol] | 310 nM | – | 5.6% | 1.2%
25 | OC(c1ccccn1)C1(c2ccc(C(F)(F)F)c(F)c2)CCC1 (stereo not shown) [Example 17] | 1100 nM | – | 21% | 13%
26 | OC(c1ccccn1)C1(c2ccccn2)CCC1 (stereo not shown) [Example 19, pyridin-2-yl(1-pyridin-2-ylcyclobutyl)methanol] | > 20000 nM | > 20000 nM | >85% | 76%
27 | OC(c1ccccn1)C1(c2cccnc2)CCC1 (stereo not shown) [Example 20, pyridin-2-yl(1-pyridin-3-ylcyclobutyl)methanol] | > 20000 nM | > 20000 nM | 80% | 81%
28 | OC(c1ccccn1)C1(c2ccncc2)CCC1 (stereo not shown) [Example 21, pyridin-2-yl(1-pyridin-4-ylcyclobutyl)methanol] | > 20000 nM | > 20000 nM | 71% | 52%
29 | OC(c1ccccn1)C1(c2cccc(Oc3ccccc3)c2)CCC1 (stereo not shown) [Example 23, [1-(3-phenoxyphenyl)cyclobutyl](pyridin-2-yl)methanol] | 930 nM | – | 0.12% | 0.69%
